Common to all, as to format: cell-based
One assay concerns MDA-MB-231. The experiment in a line: Alamar blue fluorescence viability (IC50), MDA-MB-231. The following applies: for Fold Change: Average Fold Change between 24/72 hr IC50 values for MCF-7 and MDA-MB-231; for IC50: MDA-MB-231, ERα negative. As to the method:
(§1) Cancer Cell Lines: Culturing Conditions and Validation. All cell lines were cultured at 37° C. with 5% CO2. All ERα-positive cell lines were grown in media lacking phenol red. MCF-7 were grown in EMEM with 10% FBS and 1% penicillin-streptomycin (P/S). T47D were cultured in MEM with 10% FBS and 1% P/S. TYS and TDG cells were grown in MEM supplemented with 10% CD-FBS and 1% P/S. HCT-116 and MDA-MB-231 cells were cultured in RPMI-1640 supplemented with 10% FBS and 1% P/S. MDA-MB-436 cells were cultured in DMEM supplemented with 10% FBS and 1% P/S. HT-29 were cultured in McCoy's media supplemented with 10% FBS and 1% P/S. All cell lines were used directly from ATCC stocks and/or have been further authenticated using PowerPlex16HS Assay (Promega) as described previously.^54 In short, >1 million cells were harvested and lysed using the cell lysis buffer (50 mM Tris, 50 mM EDTA, 25 mM sucrose, 100 mM NaCl, 1% SDS, pH 8). DNA extraction and short tandem repeats (STRs) profiling for each cell line were carried out at the University of Arizona Genetics Core (UAGC). Autosomal STR profiles were compared to reference databases such as ATCC, DSMZ, and JCRB.
(§2) Alamar Blue Fluorescence for Anticancer Activity (IC50). 2,000-15,000 cells per well were seeded a 96-well plate. Cells were allowed to adhere before DMSO stock solutions of test compounds were added to each well with a final concentration of DMSO in each well=1%; final volume: 100 μL. At the end of the desired incubation time (e.g., 24 or 72 hours), media in each well was aspirated and new fresh media (no compound, 100 μL) was added. Alamar blue solution (4 mg resazurin per 40 mL PBS) was then added (10 μL). After 2-6 hours incubation, each well's fluorescence (λexcit.=555 nm, λemission.=585 nm) was measured using a SpectraMax M3 plate reader (Molecular Devices). Percent dead was determined by comparison to a 100% dead control: 100 μM raptinal treated cells. Dose dependent curves and IC50 were calculated using Origin Pro V10.
(In general: The colour change of resazurin is a common sign of viable cells or microbes.)

In another assay the test system is HCT-116. The experiment in a line: Alamar blue fluorescence viability (IC50), HCT-116. The following applies: for Fold Change: Average Fold Change between 24/72 hr IC50 values for MCF-7 and HCT-116; for IC50: HCT-116, ERα negative. As for the experimental part: as §1, §2
The subject of a further assay is HT-29. The experiment in a line: Alamar blue fluorescence viability (IC50), HT-29. The following applies: for Fold Change: Average Fold Change between 24/72 hr IC50 values for MCF-7 and HT-29; for IC50: HT-29, ERα negative. As to the method:
as §1, §2

Another assay has as its system MCF-7 cells. The experiment in a line: Alamar blue fluorescence viability (IC50), MCF-7. As for the experimental part:
as §1, §2

Setting [1] is: MCF-7, ERα positive, 24 hr, read-out: IC50 24 hr.
[2] abbreviates: MCF-7, ERα positive, 72 hr, read-out: IC50 72 hr.
Where [3] appears, read: Homo sapiens, MCF7, MCF-7 cells, 24 hours, Alamar blue, mean ± s.e.m., read-out: IC50.

23 compounds from patent US12655104B2, “Anticancer compounds selective for ER-positive cancers” (THE BOARD OF TRUSTEES OF THE UNIVERSITY OF ILLINOIS, priority 2020, dated 2026) can be followed below.

Where two headings read alike, the source gives them in different places. Where only a bound is given, the exact number is not on record here.

As usually defined, the IC50 is the concentration that inhibits the measured activity by half.

Regarding `O=C1Nc2c(C(F)(F)F)cccc2C1(c1ccc(O)cc1)N1CCCC(F)(F)C1` (centres unmarked), the “Fold Change” value with MDA-MB-231 amounted to 667; in the assay with HCT-116, 636; in the assay on HT-29, 758. Also, the half-inhibitory concentration (IC50) with MDA-MB-231 (24 hr, read-out: IC50 24 hr) was found to be 49 ± 4 µM; in the assay with MDA-MB-231 (72 hr, read-out: IC50 72 hr), 22 ± 1 µM; with HCT-116 (24 hr, read-out: IC50 24 hr), 38 ± 4 µM; with HCT-116 (72 hr, read-out: IC50 72 hr), 21 ± 4 µM; in the assay on HT-29 (24 hr, read-out: IC50 24 hr), 29 ± 1 µM; with HT-29 (72 hr, read-out: IC50 72 hr), 25 ± 3 µM. Also, the IC50 is 0.039 ± 0.01 µM with MCF-7 cells (setting [1]) and 0.033 ± 0.001 µM with MCF-7 cells (setting [2]).
Turning to `O=C1Nc2c(C(F)(F)F)cccc2C1(c1ccc(O)cc1)N1CCC(F)(F)C1` (centres unmarked), the “Fold Change” value is listed as 1455 in the assay on MDA-MB-231, 909 in the assay on HCT-116 and 1364 in the assay on HT-29. For the same compound, the half-maximal inhibitory concentration (IC50) in the assay with MDA-MB-231 (24 hr, read-out: IC50 24 hr) turned out to be 51 ± 5 µM; with MDA-MB-231 (72 hr, read-out: IC50 72 hr) it was 32 ± 3 µM; in the assay with HCT-116 (24 hr, read-out: IC50 24 hr) it was 45 ± 5 µM; in the assay on HCT-116 (72 hr, read-out: IC50 72 hr) it was 20 ± 6 µM; with HT-29 (24 hr, read-out: IC50 24 hr), 35 ± 6 µM; with HT-29 (72 hr, read-out: IC50 72 hr), 30 ± 5 µM. Moreover, the IC50 in the assay with MCF-7 cells (setting [1]) turned out to be 0.017 ± 0.001 µM; with MCF-7 cells (setting [2]), 0.022 ± 0.001 µM.
With `O=C1Nc2c(C(F)(F)F)cccc2C1(c1ccc(O)cc1)N1CC(F)(F)C1` (centres unmarked), the 50% inhibitory concentration (IC50) with MCF-7 cells (setting [2]) is 0.117 ± 0.003 µM.
On to `O=C1Nc2c(C(F)(F)F)cccc2C1(c1ccc(O)cc1)N1CCC(F)(F)CC1` (racemic) [Compound 2, 3-(4,4-difluoropiperidin-1-yl)-3-(4-hydroxyphenyl)-7-(trifluoromethyl)indolin-2-one], for which the half-inhibitory concentration (IC50) in the assay on MCF-7 cells (setting [3]) was 0.035 µM.
With `O=C1Nc2c(C(F)(F)F)cccc2[C@@]1(c1ccc(O)cc1)N1CCC(F)CC1` [(R)-22, (R)-3-(4-fluoropiperidin-1-yl)-3-(4-hydroxyphenyl)-7-(trifluoromethyl)indolin-2-one], in the assay on MCF-7 cells (MCF-7 cells), the “anticancer activity against MCF-7 cells (in words)” value (from here on “anticancer activity”) is recorded as “lack of potent activity”.
`O=C1Nc2c(C(F)(F)F)cccc2[C@]1(c1ccc(O)cc1)N1CC(F)(F)C(F)(F)C1` [(S)-26, (S)-3-(4-hydroxyphenyl)-3-(3,3,4,4-tetrafluoropyrrolidin-1-yl)-7-(trifluoromethyl) indolin-2-one]: the “anticancer activity” value with MCF-7 cells (MCF-7 cells) was “inactive”.
`O=C1Nc2c(C(F)(F)F)cccc2C1(c1ccc(OC(F)(F)F)cc1)c1ccc(O)c(F)c1` (centres unmarked) [Compound 5, 3-(3-fluoro-4-hydroxyphenyl)-3-(4-(trifluoromethoxy)phenyl)-7-(trifluoromethyl)indolin-2-one]: the IC50 in the assay with MCF-7 cells (setting [3]) came to 0.033 µM.
For `O=C1Nc2c(C(F)(F)F)cccc2C1(c1ccc(OC(F)(F)F)cc1)c1cc(F)c(O)c(F)c1` (centres unmarked) [Compound 6, 3-(3,5-difluoro-4-hydroxyphenyl)-3-(4-(trifluoromethoxy)phenyl)-7-(trifluoromethyl)indolin-2-one], in the assay with MCF-7 cells (setting [3]), the IC50 was > 1 µM. The “anticancer activity” value with MCF-7 cells (MCF-7 cells) is “loss of activity”.
As to `O=C1Nc2c(C(F)(F)F)cccc2C1(c1ccc(OC(F)(F)F)cc1)c1ccc(O)cc1F` (centres unmarked) [Compound 7, 3-(2-fluoro-4-hydroxyphenyl)-3-(4-(trifluoromethoxy)phenyl)-7-(trifluoromethyl)indolin-2-one], the 50% inhibitory concentration (IC50) in the assay on MCF-7 cells (setting [3]) is 0.177 µM.
The same measure, in the same setting: the figure for `O=C1Nc2c(C(F)(F)F)cccc2C1(c1ccc(OC(F)(F)F)cc1)c1c(F)cc(O)cc1F` (centres unmarked) [Compound 8, 3-(2,6-difluoro-4-hydroxyphenyl)-3-(4-(trifluoromethoxy)phenyl)-7-(trifluoromethyl)indolin-2-one] is 0.549 µM.
Take `O=C1Nc2c(C(F)(F)F)cccc2C1(c1ccc(OC(F)(F)F)cc1)c1ccc(OC(F)(F)F)cc1` [Compound 9, 3,3-bis(4-(trifluoromethoxy)phenyl)-7-(trifluoromethyl)indolin-2-one]: the IC50 in the assay on MCF-7 cells (setting [3]) was > 1 µM. Further, the “anticancer activity” value in the assay with MCF-7 cells (MCF-7 cells) is reported as “lack of activity”.
As for `O=C1Nc2c(C(F)(F)F)cccc2C1(c1ccc(OC(F)(F)F)cc1)c1ccc(O)c(O)c1` (centres unmarked) [Compound 10, 3-(3,4-dihydroxyphenyl)-3-(4-(trifluoromethoxy)phenyl)-7-(trifluoromethyl)indolin-2-one], the IC50 in the assay on MCF-7 cells (setting [3]) is 0.049 µM.
Same read-out and setting: next, `Cc1cc(C2(c3ccc(OC(F)(F)F)cc3)C(=O)Nc3c(C(F)(F)F)cccc32)ccc1O` (centres unmarked) [Compound 11, 3-(4-hydroxy-3-methylphenyl)-3-(4-(trifluoromethoxy)phenyl)-7-(trifluoromethyl)indolin-2-one]: > 1 µM.
With `Cc1cc(C2(c3ccc(OC(F)(F)F)cc3)C(=O)Nc3c(C(F)(F)F)cccc32)cc(C)c1O` (centres unmarked) [Compound 12, 3-(4-hydroxy-3,5-dimethylphenyl)-3-(4-(trifluoromethoxy)phenyl)-7-(trifluoromethyl)indolin-2-one], the IC50 in the assay with MCF-7 cells (setting [3]) is > 1 µM.
Same read-out and setting: next, `CC(C)c1cc(C2(c3ccc(OC(F)(F)F)cc3)C(=O)Nc3c(C(F)(F)F)cccc32)cc(C(C)C)c1O` (centres unmarked) [Compound 13, 3-(4-hydroxy-3,5-diisopropylphenyl)-3-(4-(trifluoromethoxy)phenyl)-7-(trifluoromethyl)indolin-2-one]: > 1 µM; `O=C1Nc2c(C(F)(F)F)cccc2C1(c1ccc(O)cc1)N1CCCCC1` (centres unmarked) [Compound 16, 3-(4-hydroxyphenyl)-3-(piperidin-1-yl)-7-(trifluoromethyl)indolin-2-one]: > 1 µM.
Turning to `CC1CN(C2(c3ccc(O)cc3)C(=O)Nc3c(C(F)(F)F)cccc32)CCC1(F)F` (centres unmarked) [Compound 17, 3-(4,4-difluoro-3-methylpiperidin-1-yl)-3-(4-hydroxyphenyl)-7-(trifluoromethyl)indolin-2-one], the half-inhibitory concentration (IC50) with MCF-7 cells (setting [3]) came to 0.07 µM.
For `O=C1Nc2c(C(F)(F)F)cccc2C1(c1ccc(O)cc1)N1CCOCC1` (centres unmarked) [Compound 18, 3-(4-hydroxyphenyl)-3-morpholino-7-(trifluoromethyl)indolin-2-one], the IC50 in the assay on MCF-7 cells (setting [3]) was > 1 µM.
Still for that read-out and setting: next, `O=C1Nc2c(C(F)(F)F)cccc2C1(c1ccc(O)cc1)N1CCCCCC1` (centres unmarked) [Compound 19, 3-(azepan-1-yl)-3-(4-hydroxyphenyl)-7-(trifluoromethyl)indolin-2-one]: > 1 µM; `O=C1Nc2c(C(F)(F)F)cccc2C1(c1ccc(O)cc1)N1CCC(O)CC1` (centres unmarked) [Compound 20, 3-(4-hydroxyphenyl)-3-(4-hydroxypiperidin-1-yl)-7-(trifluoromethyl)indolin-2-one]: > 1 µM; `O=C1Nc2c(C(F)(F)F)cccc2C1(c1ccc(O)cc1)N1CCC(OC(F)(F)F)CC1` (centres unmarked) [Compound 21, 3-(4-hydroxyphenyl)-3-(4-(trifluoromethoxy)piperidin-1-yl)-7-(trifluoromethyl)indolin-2-one]: 0.135 µM.
As for `O=C1Nc2c(C(F)(F)F)cccc2C1(c1ccc(O)cc1)N1CC(F)(F)C(F)(F)C1` (centres unmarked) [drawing 36], the “Fold Change” value with MDA-MB-231 came to 3500; in the assay on HCT-116 it was 3750; in the assay with HT-29 it was 3750. The IC50 in the assay with MDA-MB-231 (24 hr, read-out: IC50 24 hr) is 22 ± 2 µM; in the assay on MDA-MB-231 (72 hr, read-out: IC50 72 hr), 14 ± 1 µM; with HCT-116 (24 hr, read-out: IC50 24 hr), 24 ± 2 µM; in the assay on HCT-116 (72 hr, read-out: IC50 72 hr) it was 15 ± 3 µM; with HT-29 (24 hr, read-out: IC50 24 hr), 25 ± 1 µM; with HT-29 (72 hr, read-out: IC50 72 hr), 15 ± 2 µM. The figures for the IC50 in the assay on MCF-7 cells (setting [1]) and in the assay with MCF-7 cells (setting [2]) were 0.005 ± 0.001 µM and 0.004 ± 0.001 µM, respectively.
For `O=C1Nc2c(C(F)(F)F)cccc2C1(c1ccc(O)cc1)N1CC(F)(F)C(F)(F)C1` (centres unmarked) [drawing 37], the IC50 in the assay with MCF-7 cells (setting [1]) and in the assay on MCF-7 cells (setting [2]) was > 1 µM each time.
